Experiments:
Rat DNA polymerase β = molecular target: T1, Rat DNA polymerase β (Rattus norvegicus, UniProt P06766); assay: DNA polymerase activity assay, rat pol β; assay type: biochemical; conditions: X-family pol; read-out: IC50 Value of MK-2, Rat DNA polymerase β
T1 construct: made in house
Protocol: (§1) Pols from mammals, a fish (cherry salmon), an insect (fruit fly) and a plant (cauliflower) were purified, and prokaryotic pols and other DNA metabolic enzymes, such as T7 RNA polymerase, T4 polynucleotide kinase and bovine deoxyribonuclease I, were purchased as described in our previous report. The activities of all pols and other DNA metabolic enzymes were measured as described in previous reports.
(§2) The components of the pol assay were poly(dA)/oligo(dT)18 and dTTP as the DNA template-primer and 2′-deoxyribonucleoside 5′-triphosphate (dNTP) substrate, respectively. VK2, VK3, and their synthesized derivatives (i.e., MK-3, MK-2 and MK-1) were dissolved in dimethyl sulfoxide (DMSO) at various concentrations and sonicated for 30 s. The sonicated samples (4 μL) were mixed with 16 μL of each pol enzyme (final amount, 0.05 units) in 50 mM Tris-HCl (pH 7.5) containing 1 mM dithiothreitol, 50% glycerol and 0.1 mM EDTA, and kept at 0 °C for 10 min. […] Activity without the inhibitor was considered to be 100%, and the activity remaining at each concentration of inhibitor was determined relative to this value. […]

Human DNA polymerase η = molecular target: T2, Human DNA polymerase η (Homo sapiens, UniProt Q9Y253); assay: DNA polymerase activity assay, human pol η; assay type: biochemical; conditions: Y-family pol; read-out: IC50 Value of MK-2, Human DNA polymerase η
T2 construct: made in house
T2 sequence (Q9Y253 1-511 limits assumed): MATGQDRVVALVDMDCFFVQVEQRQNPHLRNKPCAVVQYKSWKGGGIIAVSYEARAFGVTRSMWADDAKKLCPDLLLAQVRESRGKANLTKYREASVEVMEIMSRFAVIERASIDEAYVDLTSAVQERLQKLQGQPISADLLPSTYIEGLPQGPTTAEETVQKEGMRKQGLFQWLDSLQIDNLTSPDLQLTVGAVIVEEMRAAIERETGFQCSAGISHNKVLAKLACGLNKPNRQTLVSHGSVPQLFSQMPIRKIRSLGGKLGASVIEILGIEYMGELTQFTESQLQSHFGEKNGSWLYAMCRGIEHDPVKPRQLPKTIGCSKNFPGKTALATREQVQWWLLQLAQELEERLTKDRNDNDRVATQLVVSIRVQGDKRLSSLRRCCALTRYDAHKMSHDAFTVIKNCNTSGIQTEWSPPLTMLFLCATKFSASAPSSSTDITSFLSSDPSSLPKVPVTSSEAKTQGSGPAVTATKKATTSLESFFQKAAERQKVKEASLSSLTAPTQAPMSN
Protocol: as §1, §2

[1] = molecular target: Cherry salmon DNA polymerase δ (Oncorhynchus masou, UniProt Z9UCE0HTX2); assay: DNA polymerase activity assay, cherry salmon pol δ; assay type: biochemical; conditions: fish pol; read-out: IC50 Value of MK-2, Cherry salmon DNA polymerase δ
Sequence of Cherry salmon DNA polymerase δ (Z9UCE0HTX2 1-856): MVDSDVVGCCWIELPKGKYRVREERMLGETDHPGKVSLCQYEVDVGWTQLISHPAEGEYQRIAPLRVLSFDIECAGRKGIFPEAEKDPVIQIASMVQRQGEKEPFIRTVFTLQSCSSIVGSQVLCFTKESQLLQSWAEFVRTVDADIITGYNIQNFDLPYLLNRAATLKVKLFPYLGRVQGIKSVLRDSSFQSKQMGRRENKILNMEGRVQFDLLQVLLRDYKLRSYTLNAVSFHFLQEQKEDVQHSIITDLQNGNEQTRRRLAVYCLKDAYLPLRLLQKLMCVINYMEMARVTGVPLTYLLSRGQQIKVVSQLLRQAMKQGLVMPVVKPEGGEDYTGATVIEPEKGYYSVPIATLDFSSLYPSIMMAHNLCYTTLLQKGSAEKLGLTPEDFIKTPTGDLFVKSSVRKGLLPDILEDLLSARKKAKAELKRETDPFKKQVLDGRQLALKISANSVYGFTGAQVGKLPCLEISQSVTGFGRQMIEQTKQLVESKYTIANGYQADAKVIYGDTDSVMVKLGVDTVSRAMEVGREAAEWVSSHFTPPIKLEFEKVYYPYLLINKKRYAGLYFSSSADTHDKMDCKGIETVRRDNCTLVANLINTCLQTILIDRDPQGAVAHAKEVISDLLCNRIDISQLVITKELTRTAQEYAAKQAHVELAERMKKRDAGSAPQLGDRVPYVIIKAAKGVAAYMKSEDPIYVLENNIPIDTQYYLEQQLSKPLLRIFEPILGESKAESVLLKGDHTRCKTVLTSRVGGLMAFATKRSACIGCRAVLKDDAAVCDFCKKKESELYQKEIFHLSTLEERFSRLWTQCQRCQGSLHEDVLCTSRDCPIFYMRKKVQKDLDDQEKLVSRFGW
Protocol: as §1, §2

[2] = molecular target: T3, Fruit fly DNA polymerase ɛ (Drosophila melanogaster, UniProt Q9VCN1); assay: DNA polymerase activity assay, fruit fly pol ɛ; assay type: biochemical; conditions: insect pol; read-out: IC50 Value of MK-2, Fruit fly DNA polymerase ɛ
T3 construct: made in house
T3 sequence (Q9VCN1 whole entry): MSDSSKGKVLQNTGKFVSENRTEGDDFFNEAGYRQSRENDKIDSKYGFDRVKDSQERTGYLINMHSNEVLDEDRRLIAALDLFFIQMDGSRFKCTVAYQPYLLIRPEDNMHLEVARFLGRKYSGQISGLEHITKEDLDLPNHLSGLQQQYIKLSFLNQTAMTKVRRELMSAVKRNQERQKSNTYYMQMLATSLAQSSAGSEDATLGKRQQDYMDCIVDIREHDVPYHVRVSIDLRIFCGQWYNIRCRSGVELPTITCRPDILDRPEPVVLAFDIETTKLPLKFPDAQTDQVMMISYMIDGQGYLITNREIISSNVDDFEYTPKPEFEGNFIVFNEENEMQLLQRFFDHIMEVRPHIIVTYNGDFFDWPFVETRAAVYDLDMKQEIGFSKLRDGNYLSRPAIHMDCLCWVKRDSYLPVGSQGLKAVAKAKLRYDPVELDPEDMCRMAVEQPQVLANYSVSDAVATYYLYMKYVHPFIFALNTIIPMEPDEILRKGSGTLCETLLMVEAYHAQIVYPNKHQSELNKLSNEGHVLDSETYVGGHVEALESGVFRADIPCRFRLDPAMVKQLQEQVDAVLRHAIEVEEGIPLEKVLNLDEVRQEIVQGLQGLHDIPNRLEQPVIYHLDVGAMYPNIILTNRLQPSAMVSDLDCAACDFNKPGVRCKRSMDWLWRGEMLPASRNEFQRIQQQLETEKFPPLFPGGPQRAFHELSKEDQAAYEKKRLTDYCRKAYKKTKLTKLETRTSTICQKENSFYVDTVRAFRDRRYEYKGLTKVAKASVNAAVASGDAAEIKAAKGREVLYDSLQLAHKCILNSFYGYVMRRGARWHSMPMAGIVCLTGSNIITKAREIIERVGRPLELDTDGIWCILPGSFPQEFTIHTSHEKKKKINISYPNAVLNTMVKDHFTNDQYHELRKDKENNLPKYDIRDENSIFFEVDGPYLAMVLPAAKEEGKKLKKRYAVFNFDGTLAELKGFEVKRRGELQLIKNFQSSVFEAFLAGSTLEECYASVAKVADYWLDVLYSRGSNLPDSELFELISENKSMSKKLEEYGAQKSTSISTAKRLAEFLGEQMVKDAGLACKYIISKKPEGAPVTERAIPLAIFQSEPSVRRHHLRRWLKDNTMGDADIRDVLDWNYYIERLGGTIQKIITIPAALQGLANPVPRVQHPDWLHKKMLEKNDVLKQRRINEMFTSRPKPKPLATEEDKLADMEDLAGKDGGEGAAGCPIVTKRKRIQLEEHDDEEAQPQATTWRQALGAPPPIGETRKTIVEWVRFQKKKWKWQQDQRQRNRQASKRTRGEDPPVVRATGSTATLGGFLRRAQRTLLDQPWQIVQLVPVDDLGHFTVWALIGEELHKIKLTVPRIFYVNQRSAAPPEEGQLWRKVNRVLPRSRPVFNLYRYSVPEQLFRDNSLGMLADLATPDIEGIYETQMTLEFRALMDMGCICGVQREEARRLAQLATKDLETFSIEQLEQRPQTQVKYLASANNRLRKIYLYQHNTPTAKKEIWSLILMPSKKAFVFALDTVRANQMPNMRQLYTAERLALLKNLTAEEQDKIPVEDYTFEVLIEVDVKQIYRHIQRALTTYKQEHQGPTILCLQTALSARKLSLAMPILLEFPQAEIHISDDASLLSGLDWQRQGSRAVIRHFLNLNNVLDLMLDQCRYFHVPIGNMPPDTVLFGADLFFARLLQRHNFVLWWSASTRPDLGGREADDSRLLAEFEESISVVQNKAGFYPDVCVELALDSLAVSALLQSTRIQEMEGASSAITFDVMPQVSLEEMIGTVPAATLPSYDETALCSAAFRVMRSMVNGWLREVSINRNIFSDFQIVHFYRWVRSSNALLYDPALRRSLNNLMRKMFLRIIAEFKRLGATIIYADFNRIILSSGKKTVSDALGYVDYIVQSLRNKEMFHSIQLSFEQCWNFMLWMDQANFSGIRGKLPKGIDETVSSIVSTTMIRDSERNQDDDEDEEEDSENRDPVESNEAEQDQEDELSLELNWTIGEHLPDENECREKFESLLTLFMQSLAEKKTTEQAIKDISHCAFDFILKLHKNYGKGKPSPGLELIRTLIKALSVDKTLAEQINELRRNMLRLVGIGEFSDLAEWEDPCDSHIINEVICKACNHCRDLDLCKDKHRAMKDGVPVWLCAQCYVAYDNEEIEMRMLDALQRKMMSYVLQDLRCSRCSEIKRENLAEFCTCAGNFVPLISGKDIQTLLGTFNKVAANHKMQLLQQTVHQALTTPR
Protocol: as §1, §2

[3] = molecular target: Cauliflower DNA polymerase α (Brassica oleracea var. botrytis, UniProt A0A0D3D890); assay: DNA polymerase activity assay, cauliflower pol α; assay type: biochemical; conditions: plant pol; read-out: IC50 Value of MK-2, Cauliflower DNA polymerase α
Protocol: as §1, §2

T7 RNA polymerase = molecular target: T4, T7 RNA polymerase (Escherichia phage T7, UniProt P00573); assay: DNA metabolic enzyme assay, T7 RNA polymerase; assay type: biochemical; conditions: other DNA metabolic enzyme; read-out: IC50 Value of MK-2, T7 RNA polymerase
T4 construct: purchased
T4 sequence (P00573 whole entry): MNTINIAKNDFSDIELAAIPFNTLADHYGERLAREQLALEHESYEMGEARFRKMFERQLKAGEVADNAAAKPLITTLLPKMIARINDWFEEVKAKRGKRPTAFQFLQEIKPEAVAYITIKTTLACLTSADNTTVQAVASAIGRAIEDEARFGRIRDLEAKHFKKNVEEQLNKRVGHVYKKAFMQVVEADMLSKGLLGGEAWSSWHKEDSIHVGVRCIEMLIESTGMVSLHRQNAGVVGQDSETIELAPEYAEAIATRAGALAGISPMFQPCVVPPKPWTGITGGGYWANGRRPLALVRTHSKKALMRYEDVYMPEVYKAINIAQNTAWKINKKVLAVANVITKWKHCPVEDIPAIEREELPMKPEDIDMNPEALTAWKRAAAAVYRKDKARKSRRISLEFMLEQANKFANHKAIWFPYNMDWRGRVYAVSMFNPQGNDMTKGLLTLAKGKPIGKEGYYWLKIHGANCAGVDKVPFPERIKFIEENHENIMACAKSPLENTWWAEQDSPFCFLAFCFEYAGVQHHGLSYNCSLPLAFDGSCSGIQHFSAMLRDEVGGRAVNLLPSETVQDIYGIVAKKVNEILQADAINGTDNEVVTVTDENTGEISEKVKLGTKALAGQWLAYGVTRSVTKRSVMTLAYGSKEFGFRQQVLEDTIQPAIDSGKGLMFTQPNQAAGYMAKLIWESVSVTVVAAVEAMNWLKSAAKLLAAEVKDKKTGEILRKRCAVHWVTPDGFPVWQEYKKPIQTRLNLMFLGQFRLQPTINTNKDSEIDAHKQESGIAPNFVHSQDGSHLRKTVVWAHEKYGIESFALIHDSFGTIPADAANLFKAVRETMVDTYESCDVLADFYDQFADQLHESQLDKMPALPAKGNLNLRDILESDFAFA
Protocol: as §1

[4] = molecular target: T5, Bovine deoxyribonuclease I (Bos taurus, UniProt P00639); assay: DNA metabolic enzyme assay, bovine deoxyribonuclease I; assay type: biochemical; conditions: other DNA metabolic enzyme; read-out: IC50 Value of MK-2, Bovine deoxyribonuclease I
T5 construct: purchased
T5 sequence (P00639 23-282): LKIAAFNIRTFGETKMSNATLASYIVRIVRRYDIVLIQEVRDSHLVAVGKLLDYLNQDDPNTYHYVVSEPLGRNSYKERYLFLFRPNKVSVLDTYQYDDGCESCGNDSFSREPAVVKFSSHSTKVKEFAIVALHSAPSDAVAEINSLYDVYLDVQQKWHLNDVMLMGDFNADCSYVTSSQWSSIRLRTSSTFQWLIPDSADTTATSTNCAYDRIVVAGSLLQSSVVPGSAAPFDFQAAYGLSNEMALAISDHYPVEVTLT
Protocol: as §1

[5] = test system: LPS-induced TNF-α production in serum; assay: In vivo LPS-induced inflammatory experiment, serum TNF-α; parameters: species or system mouse; conditions: female C57BL/6 mice; 100 mg/kg BW intraperitoneal, 30 min before LPS 250 μg/kg BW i.p.; serum 1 h after LPS
Protocol: All animal studies were performed according to the guidelines outlined in the “Care and Use of Laboratory Animals” of Kobe University. The animals were anesthetized with pentobarbital before undergoing cervical dislocation. Female 8-week-old C57BL/6 mice that had been bred in-house with free access to food and water were used for all experiments. All of the mice were maintained under a 12-h light/dark cycle and housed at a room temperature of 25 °C.
Mice were intraperitoneally injected with 200 μL of MK-2 dissolved in corn oil at 100 mg/kg body weight (BW), or 200 μL of corn oil as a vehicle control. After 30 min, the mice were intraperitoneally injected with 200 μL of 250 μg/kg BW LPS dissolved in PBS or 200 μL of PBS as a vehicle control. After 1 h, the mice were killed, and blood samples were collected. The blood serum was separated by centrifugation at 15,000 × g for 10 min at 4 °C, and the TNF-α level in the serum was measured by ELISA.

SMILES: CC(C)=CCC/C(C)=C/CC1=C(C)C(=O)c2ccccc2C1=O [MK-2]
- IC50 (Rat DNA polymerase β): 31 ± 1.8 µM
- IC50 (Human DNA polymerase η): 37.8 ± 2.2 µM
- IC50 [1]: 32.5 ± 1.9 µM
- IC50 [2]: 36.7 ± 2.1 µM
- IC50 [3]: > 200 µM
- IC50 (T7 RNA polymerase): > 200 µM
- IC50 [4]: > 200 µM
- Decrease of LPS-induced serum TNF-α production [5]: 83.2%
